This note sets out measurements from US20060135587A1, “Method and compounds for promoting healing and reducing inflammation” (priority 2002, published 2006).

Common to all, as to assay type: in vivo
The test system of series [1] is bradykinin-induced inflammation. Put plainly: Bradykinin-induced acute inflammation in rats. The procedure:
Acute inflammation was induced by sub-plantar injection of 0.1 ml of 0.01% of bradykinin in saline solution into the left paws of male rats weighing 180-200 g. The acuteness of the inflammation was assessed 30 minutes after injection of bradykinin by the change in the paw volume. The anti-inflammatory effect, assessed by the reduction of swelling, was expressed as a percentage of the initial paw […] compared to controls. The test substances were administered orally via an intra-gastric tube for three days and at one hour before administration of bradykinin. […] These were administered orally to rats for 3 days and at one hour before the injection of the agent. There were 12 rats in each group.

For another series, the system named is experimental granuloma. Put plainly: Cotton-wool granuloma (chronic proliferative inflammation) in rats. As to conditions: 100 mg/kg orally, 12 days. The procedure:
We investigated the ability of compound (2) to reduce the formation of granulation tissue in the inflammatory focus which develops at the site at which a non-sterile cotton-wool roll weighing 40 mg is implanted subcutaneously (Swingle and Shideman, 1972). Compound (2) was administered orally to male rats weighing 130-150 g at a dose of 100 mg/kg for 6 days before the cotton-wool roll was implanted, and then for 6 days at the same dose while the granuloma developed. Anti-inflammatory agents, such as ibuprofen and butadione, were used for comparison, using the same procedure. There were 10 rats in each group.
After 12 days the experiment was terminated, and the granulomas were excised, weighed, and the wet weight of the granulation tissue was measured. The dry mass of the granuloma was measured after drying for 24 hours at 70° C., and the exudative and proliferative stages of the granulomas were calculated. Statistical analysis was performed using the Student's parametric test.

Series [2] has as its system cryogenic injury of the oral mucosa. Nature of the series: Healing of mouth ulcers caused by cryogenic injury in rats. The note with it: 50 mg/kg; morphological analysis. The protocol: A model of mouth ulcers using ulcers caused by cryogenic injury of the inner surface of the cheek was used for this purpose. Tests were performed on 110 male rats weighing 180-200 g, with 10 animals in each group. Ulcers were created in experimental animals by pressing a metal rod of 2.5 mm in diameter cooled in liquid nitrogen to the mucosa for 10 seconds under ether anaesthesia. Animals were kept in separate cages, with normal food and water ad libitum. Treatment was administered by spraying of the mucous membrane of the mouth, 24 hours after wounding and then daily until healing was complete. Compound 2 was administered to the animals at a dose of 50 mg/kg (2 ml of aqueous solution). The following groups of animals were used:
The progress of wound healing was examined morphologically on days 1, 3, 7 and 14. On the day 3 the lesions were progressively worse, resulting in the growth of necrotic changes with the formation of a wide necrotic zone at the bottom of the wound, and growth and expansion of acute inflammation involving the muscle, skin and mucosa beyond the wound area. On day 7, the wounds in half of the animals were partially cleared of the necrotic mass, accompanied by the development of granulation tissue at the bottom of the wound and in the adjacent mucosa. […]

The subject of the next series is guinea pigs. Nature of the series: Acute toxicity (LD50) in guinea pigs. As to conditions: oral administration. From the text:
It is contemplated that in clinical use, treatment using oral tablets will take two to three weeks, with each patient receiving three tablets containing 0.6 g active compound per day.

As for `CC[n+]1cn(C)c(C(=O)NC)c1C(=O)NC.O=S(=O)([O-])c1ccccc1` [Compound 2, 1-methyl-3-ethyl-4,5-bis(N-methylcarbamoyl)-imidazolium benzenesulfonate], in series [1] (20 mg/kg orally), the “Increase in paw volume” value is 0.41 mL, the “Paw volume 30 minutes after administration of bradykinin” value worked out at 1.80 ± 0.060 mL, the Paw volume initial was 1.39 ± 0.040 mL and the “Swelling inhibition (%)” value is 40.58%. Besides, in series [1] (50 mg/kg orally), the “Increase in paw volume” value was 0.34 mL, the “Paw volume 30 minutes after administration of bradykinin” value came out at 1.69 ± 0.060 mL, the Paw volume initial stood at 1.35 ± 0.038 mL and the “Swelling inhibition (%)” value is reported as 50.72%. Further, in the series with experimental granuloma, the “Granuloma weight (mg) Dry weight” value worked out at 180.71 ± 14.16 mg, the “Granuloma weight (mg) Exudative stage” value worked out at 775.58 mg, the “Granuloma weight (mg) Fresh weight” value worked out at 956.29 ± 115.5 mg and the “Granuloma weight (mg) Proliferative stages” value is reported as 140.71 mg. In addition, the “healing of cryogenic injury of the oral mucosa compared to untreated controls” value in series [2] is “more pronounced, earlier and more complete healing”. Moreover, the LD50 entry in the series on guinea pigs is listed as “more than 20000 mg/kg”.
